Article PMC4363092 (Journal of medicinal chemistry, 2014)

What was measured:
TNAP = target: T1, TNAP (Homo sapiens, UniProt P05186); test: TNAP stability assay: hydrolysis by TNAP; type: in vitro ADME; details: 1 h, pH 9, 100 μM (data not shown)
T1 sequence (P05186 18-502 limits assumed): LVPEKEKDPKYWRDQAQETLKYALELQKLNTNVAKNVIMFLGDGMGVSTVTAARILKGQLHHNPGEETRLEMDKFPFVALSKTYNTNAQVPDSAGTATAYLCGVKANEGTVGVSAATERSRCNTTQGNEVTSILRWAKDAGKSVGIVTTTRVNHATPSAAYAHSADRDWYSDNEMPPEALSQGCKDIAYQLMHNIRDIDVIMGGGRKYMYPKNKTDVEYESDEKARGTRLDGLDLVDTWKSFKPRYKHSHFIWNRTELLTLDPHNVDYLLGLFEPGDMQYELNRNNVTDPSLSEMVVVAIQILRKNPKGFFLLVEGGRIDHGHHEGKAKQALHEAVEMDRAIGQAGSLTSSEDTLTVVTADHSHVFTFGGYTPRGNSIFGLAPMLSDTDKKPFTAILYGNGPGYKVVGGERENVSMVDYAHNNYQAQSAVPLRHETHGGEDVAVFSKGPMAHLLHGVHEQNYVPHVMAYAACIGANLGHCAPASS

P2Y1 receptor = P2Y1 receptor (Homo sapiens, UniProt P47900); test: [Ca2+]i elevation in 1321N1 astrocytoma cells expressing GFP-P2Y1 receptor; type: cell-based; details: EC50 of the nucleotide in relation to the EC50 of ATP
Chain of P2Y1 receptor (P47900 whole entry): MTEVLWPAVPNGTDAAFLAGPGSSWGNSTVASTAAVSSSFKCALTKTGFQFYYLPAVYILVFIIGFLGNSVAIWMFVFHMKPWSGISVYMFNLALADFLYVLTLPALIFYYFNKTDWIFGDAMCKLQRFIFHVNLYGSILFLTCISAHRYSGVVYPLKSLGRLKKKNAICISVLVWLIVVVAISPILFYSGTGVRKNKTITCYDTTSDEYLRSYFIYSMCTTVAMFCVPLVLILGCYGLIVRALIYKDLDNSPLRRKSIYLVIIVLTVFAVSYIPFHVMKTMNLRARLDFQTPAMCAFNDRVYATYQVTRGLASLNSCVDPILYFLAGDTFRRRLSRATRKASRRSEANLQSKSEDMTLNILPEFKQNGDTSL

**Q.** How did the “hydrolysis by TNAP” value (TNAP) turn out when `Nc1ncnc2c1ncn2[C@@H]1O[C@H](COP(=O)(O)OP(=O)(O)OP(=O)(O)O)[C@@H](O)[C@H]1O` [ATP, reference compound] was run?
**A.** Its value is 100%.

**Q.** What about the “increase in efficacy vs ATP, P2Y1” value (P2Y1 receptor) of the same compound?
**A.** The value was 1.
